Experimental data published in patent publication US4783443A, “Amino acyl cephalosporin derivatives” (The University of Chicago, priority 1986, dated 1988).
Converted amounts (≈) assume the structure as drawn.

Tests used:
Enterobacter areogenes = assay: Minimum inhibitory concentration (MIC); type: cell-based; conditions: Gram-negative
Source text: (§1) The antibacterial effects of compounds of the invention have been assessed by determination of the minimum inhibitory concentration (M.I.C.) value against a variety of Gram-negative and -positive bacteria. The microbial susceptibility data for four compounds, together with those for the antibacterial dipeptide beta-Cl-LAla-beta-Cl-LAla, are given in Table I.
(§2) in uM to facilitate a meaningful comparison of the approximate MICs among
(§3) the tested compounds; an appreciation of the MIC values in ug/mL can be
(§4) obtained by multiplying each value (μM) by 0.55

Enterobacter cloacae = assay: Minimum inhibitory concentration (MIC); type: cell-based
Source text: as §1, §2, §3, §4

Escherichia coli CR = assay: Minimum inhibitory concentration (MIC); type: cell-based
Source text: as §1, §2, §3, §4

Escherichia coli DB4548 = assay: Minimum inhibitory concentration (MIC); type: cell-based
Source text: as §1, §2, §3, §4

Escherichia coli JSR-O = assay: Minimum inhibitory concentration (MIC); type: cell-based
Source text: as §1, §2, §3, §4

[1] = test system: Hemophilus influenzae 236; assay: Minimum inhibitory concentration (MIC); type: cell-based
Source text: as §1, §2, §3, §4

[2] = test system: Hemophilus influenzae 238; assay: Minimum inhibitory concentration (MIC); type: cell-based
Source text: as §1, §2, §3, §4

[3] = test system: Hemophilus influenzae 487; assay: Minimum inhibitory concentration (MIC); type: cell-based; conditions: possesses a betalactamase
Source text: as §1, §2, §3, §4

Klebsiella pneumoniae = assay: Minimum inhibitory concentration (MIC); type: cell-based; conditions: Gram-negative
Source text: as §1, §2, §3, §4

Morganella morganii = assay: Minimum inhibitory concentration (MIC); type: cell-based; conditions: Gram-negative
Source text: as §1, §2, §3, §4

Psuedomonas aeruginosa = assay: Minimum inhibitory concentration (MIC); type: cell-based; conditions: Gram-negative
Source text: as §1, §2, §3, §4

[4] = test system: Salmonella typhimurium LT 2; assay: Minimum inhibitory concentration (MIC); type: cell-based; conditions: Gram-negative
Source text: as §1, §2, §3, §4

Salmonella typhimurium = assay: Minimum inhibitory concentration (MIC); type: cell-based; conditions: Gram-negative
Source text: as §1, §2, §3, §4

Serratia marcescens = assay: Minimum inhibitory concentration (MIC); type: cell-based; conditions: Gram-negative
Source text: as §1, §2, §3, §4

Shigella flexneri = assay: Minimum inhibitory concentration (MIC); type: cell-based; conditions: Gram-negative
Source text: as §1, §2, §3, §4

[5] = test system: Staphylococcus aureus H-2690-8^R; assay: Minimum inhibitory concentration (MIC); type: cell-based; conditions: possesses a betalactamase
Source text: as §1, §2, §3, §4

[6] = test system: Staphylococcus aureus PSL-13 Pen^R; assay: Minimum inhibitory concentration (MIC); type: cell-based; conditions: possesses a betalactamase
Source text: as §1, §2, §3, §4

[7] = test system: Staphylococcus aureus PSL-14 Pen^R; assay: Minimum inhibitory concentration (MIC); type: cell-based; conditions: possesses a betalactamase
Source text: as §1, §2, §3, §4

[8] = test system: Staphylococcus aureus PSL-15 Pen^R; assay: Minimum inhibitory concentration (MIC); type: cell-based; conditions: possesses a betalactamase
Source text: as §1, §2, §3, §4

[9] = test system: Staphylococcus aureus PSL-16 Pen^R; assay: Minimum inhibitory concentration (MIC); type: cell-based; conditions: possesses a betalactamase
Source text: as §1, §2, §3, §4

[10] = test system: Staphylococcus aureus T-4624-8 Pen^R; assay: Minimum inhibitory concentration (MIC); type: cell-based; conditions: possesses a betalactamase
Source text: as §1, §2, §3, §4

Streptococcus agalactiae = assay: Minimum inhibitory concentration (MIC); type: cell-based; conditions: Gram positive
Source text: as §1, §2, §3, §4

Streptococcus faecalis = assay: Minimum inhibitory concentration (MIC); type: cell-based
Source text: as §1, §2, §3, §4

[11] = test system: Escherichia coli JSR-O Cl-Pep^R; assay: Minimum inhibitory concentration (MIC); type: cell-based
Source text: as §1, §2, §3, §4
^(g) This ia an E. coli JSRO strain selected for resistance to the
A comparison of the data for E. coli strains JSR-O and JSR-O Cl-Pep^R is of special interest. E. coli Cl-Pep^R is an E. coli JSR-O mutant which was selected for resistance to the dipeptide (f). […] Note that the MIC values for (d) and (e) against E. coli Cl-Pep^R (100 and 50 μM, respectively) are quite similar.

[12] = test system: Escherichia coli JSR-O pBR322; assay: Minimum inhibitory concentration (MIC); type: cell-based; conditions: read-out: Minimum Inhibitory Concentration
Source text: as §1, §2, §3, §4
^(i) Contains the plasmid gene encoding the TEM betalactamase.

Corynebacterium JKM-4754 = assay: Minimum inhibitory concentration (MIC); type: cell-based; conditions: Corynebacterium JKM-4754, resistant to cephalothin
Source text: as §1, §2, §3, §4
(§5) ^(j) Resistant to cephalothin (MIC >200 uM);

Corynebacterium JKR-2285 = assay: Minimum inhibitory concentration (MIC); type: cell-based; conditions: Corynebacterium JKR-2285, resistant to cephalothin
Source text: as §1, §2, §3, §4, §5

Escherichia coli Ceph^R = assay: Minimum inhibitory concentration (MIC); type: cell-based
Source text: as §1, §2, §3, §4, §5

[13] = test system: Staphylococcus epidermidis (P^R M^R); assay: Minimum inhibitory concentration (MIC); type: cell-based; conditions: no strain number
Source text: as §1, §2, §3, §4
(§6) ^(k) P and M refer to penicillin and methicillin, respectively.

[14] = test system: Staphylococcus epidermidis 1239(P^R M^R); assay: Minimum inhibitory concentration (MIC); type: cell-based
Source text: as §1, §2, §3, §4, §6

[15] = test system: Staphylococcus epidermidis MO1554(P^S M^S); assay: Minimum inhibitory concentration (MIC); type: cell-based; conditions: Staphylococcus epidermidis MO1554 (penicillin- and methicillin-sensitive, P^S M^S)
Source text: as §1, §2, §3, §4, §6

[16] = test system: Gram-negative and -positive bacteria; assay: Antibacterial activity, general trends of the MIC panel of Table I; type: cell-based; conditions: for insensitivity / resistance: P. aeruginosa, S. marcescens and K. pneumoniae
Source text: as §1

[17] = biological target: E. coli TEM beta-lactamase (Escherichia coli, UniProt P62593); assay: Kinetics of enzymatic turnover by E. coli TEM beta-lactamase; type: biochemical
Sequence of E. coli TEM beta-lactamase (P62593 24-286 limits assumed): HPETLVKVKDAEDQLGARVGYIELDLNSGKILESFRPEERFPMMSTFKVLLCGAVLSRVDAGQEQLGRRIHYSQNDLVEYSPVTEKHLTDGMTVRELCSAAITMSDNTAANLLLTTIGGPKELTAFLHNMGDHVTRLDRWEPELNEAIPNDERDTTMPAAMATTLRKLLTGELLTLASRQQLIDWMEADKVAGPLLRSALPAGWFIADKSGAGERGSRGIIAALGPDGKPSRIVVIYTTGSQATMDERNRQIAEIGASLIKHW
Protocol: Escherichi coli TEM beta-lactamase was purchased from Applied Microbiology and Research, Porton Down, U.K. L-Alanyl-L-alanine was purchase from Sigma; N-BOC-LAla-LAla and N-BOC-beta-Cl-LAla-beta-Cl-LAla were prepared as described previously. Cheung et al supra. All other reagents were of the best grade commercially available.
Kinetic Constants for the Reactions of E. coli TEM beta-Lactamase with Cephalothin and the Cephalosporin Peptide Esters 7 and 17.

[18] = test system: Gram-negative and -positive bacteria; conditions: Cheung et al., 1983; cited from earlier work
[19] = Escherichia coli, read-out: Minimum Inhibitory Concentration
[20] = S. aureus strains, Corynebacterium JK strains, S. faecalis, H. influenzae 487, E. coli JSR-O and E. cloacae

N[C@@H](CCl)C(=O)N[C@@H](CCl)C(=O)OCC1=C(C(=O)O)N2C(=O)[C@@H](NC(=O)Cc3cccs3)[C@H]2SC1 [(e), 7-beta-(2-thienylacetamido)-3-(beta-chloro-L-alanyl-beta-chloro-L-alanyloxymethyl)-3-cephem-4-carboxylate]
MIC (Enterobacter areogenes): 200 µM (≈ 113 µg/mL) | MIC (Enterobacter cloacae; read-out: Minimum Inhibitory Concentration): 12.5 µM (≈ 7.07 µg/mL) | MIC (Escherichia coli CR; [19]): 12.5 µM (≈ 7.07 µg/mL) | MIC (Escherichia coli DB4548): 6.25 µM (≈ 3.53 µg/mL) | MIC (Escherichia coli JSR-O; [19]): 12.5 µM (≈ 7.07 µg/mL) | MIC ([1]; Haemophilus influenzae): 25 µM (≈ 14.1 µg/mL) | MIC ([2]; Haemophilus influenzae): ≤ 0.78 µM | MIC ([3]; Haemophilus influenzae): 3.12 µM (≈ 1.76 µg/mL) | MIC (Klebsiella pneumoniae): > 200 µM | MIC (Morganella morganii): 50 µM (≈ 28.3 µg/mL) | MIC (Psuedomonas aeruginosa): > 200 µM | MIC ([4]; Salmonella enterica): 25 µM (≈ 14.1 µg/mL) | MIC (Salmonella typhimurium; Salmonella enterica): 50 µM (≈ 28.3 µg/mL) | MIC (Serratia marcescens): > 200 µM | MIC (Shigella flexneri): 50 µM (≈ 28.3 µg/mL) | MIC [5]: ≤ 0.78 µM | MIC [6]: ≤ 0.78 µM | MIC [7]: 1.56 µM (≈ 0.882 µg/mL) | MIC [8]: 1.56 µM (≈ 0.882 µg/mL) | MIC [9]: 1.56 µM (≈ 0.882 µg/mL) | MIC [10]: ≤ 0.78 µM | MIC (Streptococcus agalactiae): ≤ 0.78 µM | MIC (Streptococcus faecalis; Enterococcus faecalis, read-out: Minimum Inhibitory Concentration): 12.5 µM (≈ 7.07 µg/mL) | MIC [11, 19]: 50 µM (≈ 28.3 µg/mL) | MIC [12]: 6.25 µM (≈ 3.53 µg/mL) | MIC (Corynebacterium JKM-4754; JKM4754, read-out: Minimum Inhibitory Concentration): 3.12 µM (≈ 1.76 µg/mL) | MIC (Corynebacterium JKR-2285; JKR2285, read-out: Minimum Inhibitory Concentration): 3.12 µM (≈ 1.76 µg/mL) | MIC (Escherichia coli Ceph^R; [19]): 12.5 µM (≈ 7.07 µg/mL) | MIC [13]: ≤ 0.78 µM | MIC [14]: ≤ 0.78 µM | MIC [15]: ≤ 0.78 µM | detectable activity among the cephalosporins ([16]; E. cloacae, all of the susceptible E. coli strains, Corynebacterium strains, S. faecalis): the only cephalosporin with detectable activity | sensitivity observed ([16]; E. cloacae, all of the susceptible E. coli strains, H. influenzae 487, all of the S. aureus strains): sensitivity was observed | insensitivity / resistance [16]: resistant | sensitivity [16, 20]: sensitive | antimicrobial potency compared with the other cephalosporins ([16]; Table I, all strains): by-and-large a more potent antimicrobial agent than the other three cephalosporins (b), (c) and (d) | antibiotic potency of (e) versus amino acid ester (c) ([16]; strains sensitive to both (c) and (e)): invariably more potent an antibiotic than is the amino acid ester (c) | Vmax compared with cephalothin [17]: substantially greater than that obtained for cephalothin | substrate for the lactamase [17]: found to be substrates for the E. coli TEM beta-lactamase | binding to the lactamase (KM approximating KS) ([17]; effect of the C10-dipeptidyl substituent): do not compromise the binding of the cephalosporin nucleus to the lactamase

Betachloro-L-Ala-beta-chloro-L-Ala [(f), reference compound]
Minimum Inhibitory Concentration (Enterobacter areogenes): 25 µM | Minimum Inhibitory Concentration (Enterobacter cloacae; Gram-negative): 12.5 µM | Minimum Inhibitory Concentration (Escherichia coli CR; Escherichia coli CR): 12.5 µM | Minimum Inhibitory Concentration (Escherichia coli JSR-O; Escherichia coli JSR-O, parental strain): 12.5 µM | Minimum Inhibitory Concentration [1]: > 200 µM | Minimum Inhibitory Concentration [2]: 12.5 µM | Minimum Inhibitory Concentration [3]: ≤ 0.78 µM | Minimum Inhibitory Concentration (Klebsiella pneumoniae): > 200 µM | Minimum Inhibitory Concentration (Morganella morganii): 200 µM | Minimum Inhibitory Concentration (Psuedomonas aeruginosa): > 200 µM | Minimum Inhibitory Concentration [4]: 200 µM | Minimum Inhibitory Concentration (Salmonella typhimurium): 200 µM | Minimum Inhibitory Concentration (Serratia marcescens): > 200 µM | Minimum Inhibitory Concentration (Shigella flexneri): 200 µM | Minimum Inhibitory Concentration [5]: 1.56 µM | Minimum Inhibitory Concentration [6]: 1.56 µM | Minimum Inhibitory Concentration [7]: 12.5 µM | Minimum Inhibitory Concentration [8]: 12.5 µM | Minimum Inhibitory Concentration [9]: 12.5 µM | Minimum Inhibitory Concentration [10]: 1.56 µM | Minimum Inhibitory Concentration (Streptococcus agalactiae): ≤ 0.78 µM | Minimum Inhibitory Concentration (Streptococcus faecalis; Streptococcus faecalis, Gram positive): 6.25 µM | Minimum Inhibitory Concentration ([11]; Escherichia coli JSR-O Cl-Pep^R, selected for resistance to the peptide (f)): > 200 µM | Minimum Inhibitory Concentration (Corynebacterium JKM-4754): 0.78 µM | Minimum Inhibitory Concentration (Corynebacterium JKR-2285): 0.78 µM | Minimum Inhibitory Concentration (Escherichia coli Ceph^R; Escherichia coli Ceph^R, resistant to cephalothin): 3.12 µM | Minimum Inhibitory Concentration [13]: ≤ 0.78 µM | Minimum Inhibitory Concentration [14]: ≤ 0.78 µM | Minimum Inhibitory Concentration [15]: ≤ 0.78 µM | insensitivity / resistance [16]: inherently insensitive | sensitivity [16, 20]: sensitive | sensitivity ([16]; S. epidermidis 1239 P^R M^R and M-1554 P^S M^S): exquisitely sensitive | antibacterial potency of dipeptide versus beta-Cl-LAla [18]: consistently and dramatically more potent an antibacterial agent than is beta-Cl-LAla alone
